Consider 21 compounds from PubChem BioAssay (NCI).

In general, TGI refers to the concentration giving total growth inhibition. A high value points to less potent growth arrest. In general, GI50 refers to the concentration that inhibits growth by half.

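Following 48 hours of exposure in 96-well plates, responses at five concentrations were used to interpolate endpoints linearly. Here, GI50 denotes the concentration required for 50% inhibition of growth. At the TGI there is no net growth.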

The subject of one experiment is 786-0 renal. The experiment can be described thus: DTP human tumour cell line panel, 48 h.
Take `CCOC(=O)c1cc2nc3ccccc3c(=O)n2c2ccccc12`: the concentration for total growth inhibition (TGI) was over 10 µM.

Regarding `Cc1ccc(S(=O)(=O)Nc2ccccc2C(=O)c2ccc(C)c(C)c2)cc1`, the TGI is over 100 µM.

In turn, `COc1c(Cl)c(=O)oc2ccc(Cl)cc12` showed a total growth inhibition concentration (TGI) of over 100 µM.

`NS(=O)(=O)c1cc(Br)c(N=Nc2ccc(O)c3ncccc23)c(Br)c1` registered a TGI of over 100 µM.

For `Cc1cc(I)cc(CN(C)CCCN2CCCCC2)c1O`, the GI50 was 13.7 µM and the TGI was 26.5 µM.

Turning to `COc1cc(NCc2ccc3oc(=O)c(-c4ccccc4)nc3c2)cc(OC)c1OC`, the TGI is over 10 µM.

As for `Cc1ccccc1S(=O)(=O)OC1NS(=O)(=O)c2ccccc21` (centres undefined), the TGI is over 100 µM.

On to `CC(=O)[C@@]12O[C@@H]1CC1C3CCC4=CC(O)CCC4(C)C3CCC12C` (some centres undefined), for which the GI50 was over 100 µM and the TGI was over 100 µM.

Take `C=C(Br)C(C)(Br)CCC(Br)C(C)(C)Cl` (centres undefined): the TGI worked out at 33.5 µM.

With `O=[N+]([O-])C(/C=C(\Cl)n1nnc2ccccc21)=C(/Cl)n1nnc2ccccc21`, the concentration for total growth inhibition (TGI) is over 100 µM.

Turning to `O=C1c2cc3c(cc2-c2c1c1ccc(F)cc1c(=O)n2CCCNCCO)OCO3`, the GI50 is 0.0335 µM and the TGI was 0.776 µM.

With `COc1ccc(-c2nnc(COc3ccc(NC(=O)Nc4cc(C(F)(F)F)cc(C(F)(F)F)c4)cc3F)o2)cc1`, the GI50 is 2.2 µM and the TGI worked out at 4.7 µM.

With `COc1ccc(/C=C(/C#N)n2nnc3cccc(F)c32)cc1`, the GI50 is 2.42 µM and the TGI is over 100 µM.

Take `COc1ccc(-c2nnc(COc3ccc(C(=O)/C=C/c4ccco4)cc3)o2)cc1`: the GI50 was 1.89 µM and the TGI was 3.65 µM.

In the case of `OC(c1nc2ccccc2[nH]1)C(O)C(O)C(O)c1nc2ccccc2[nH]1` (centres undefined), the TGI is over 100 µM.

On to `COc1cc2c3c(n(C)c(=O)c2cc1OC)-c1cc2c(cc1/C3=C\CCCN)OCO2`, for which the GI50 is 1.23 µM and the TGI came to 5.02 µM.

With `Cc1c2c(nn1-c1ccc(S(=O)(=O)/N=C3\SCCC(=O)N3c3ccccc3)cc1)-c1ccccc1CC2`, the GI50 was 81.7 µM and the TGI was over 100 µM.

On to `C=C1C(=O)O[C@H]2[C@H]1CC/C(COC(=O)c1c[nH]c3ccccc13)=C\CC[C@@]1(C)O[C@@H]21`, for which the GI50 is 0.326 µM and the TGI is 1.13 µM.

In the case of `O=C1NCC2(CCN(CCCC3(c4ccc(F)cc4)OCCO3)CC2)N1c1ccccc1`, the TGI is over 100 µM.

The compound `CCN(CC)/C(SCc1ccccc1)=C(\C(Cl)=C(Cl)Cl)[N+](=O)[O-]` displayed a TGI of 30.2 µM.

On to `COc1cc(/C=C2\CN(S(=O)(=O)c3ccccc3)C/C(=C\c3cc(CN4CCCC4)c(O)c(OC)c3)C2=O)cc(CN2CCCC2)c1O`, for which the GI50 is 1.86 µM and the TGI was determined as 4.32 µM.

Another experiment concerns CCRF-CEM leukemia. Description: DTP human tumour cell line panel, 48 h.
In the case of `CCOC(=O)c1cc2nc3ccccc3c(=O)n2c2ccccc12`, the TGI is over 10 µM.

In turn, `COc1c(Cl)c(=O)oc2ccc(Cl)cc12` displayed a TGI of over 100 µM.

As to `NS(=O)(=O)c1cc(Br)c(N=Nc2ccc(O)c3ncccc23)c(Br)c1`, the TGI came out at 6.74 µM.

As to `Cc1cc(I)cc(CN(C)CCCN2CCCCC2)c1O`, the GI50 was 18.6 µM and the TGI is 43.4 µM.

Turning to `COc1cc(NCc2ccc3oc(=O)c(-c4ccccc4)nc3c2)cc(OC)c1OC`, the TGI is over 10 µM.

The compound `C=C(Br)C(C)(Br)CCC(Br)C(C)(C)Cl` (centres undefined) showed a TGI of 13.4 µM.

Turning to `O=[N+]([O-])C(/C=C(\Cl)n1nnc2ccccc21)=C(/Cl)n1nnc2ccccc21`, the TGI is over 100 µM.

In the case of `O=C1c2cc3c(cc2-c2c1c1ccc(F)cc1c(=O)n2CCCNCCO)OCO3`, the GI50 is 0.0301 µM and the TGI amounted to 1.27 µM.

Regarding `COc1ccc(-c2nnc(COc3ccc(NC(=O)Nc4cc(C(F)(F)F)cc(C(F)(F)F)c4)cc3F)o2)cc1`, the GI50 was 2.86 µM and the TGI came out at 11.6 µM.

For `COc1ccc(/C=C(/C#N)n2nnc3cccc(F)c32)cc1`, the GI50 was 0.949 µM and the TGI is over 100 µM.

For `Cc1c2c(nn1-c1ccc(S(=O)(=O)/N=C3\SCCC(=O)N3c3ccccc3)cc1)-c1ccccc1CC2`, the GI50 was over 100 µM and the TGI was over 100 µM.

With `C=C1C(=O)O[C@H]2[C@H]1CC/C(COC(=O)c1c[nH]c3ccccc13)=C\CC[C@@]1(C)O[C@@H]21`, the GI50 was 0.058 µM and the TGI turned out to be 0.972 µM.

`O=C1NCC2(CCN(CCCC3(c4ccc(F)cc4)OCCO3)CC2)N1c1ccccc1` registered a total growth inhibition concentration (TGI) of over 100 µM.

For `CCN(CC)/C(SCc1ccccc1)=C(\C(Cl)=C(Cl)Cl)[N+](=O)[O-]`, the TGI was 52.2 µM.

For another experiment, the system named is DU-145 prostate. Description: DTP human tumour cell line panel, 48 h.
Consider `CCOC(=O)c1cc2nc3ccccc3c(=O)n2c2ccccc12`, for which the TGI was over 10 µM.

As for `Cc1ccc(S(=O)(=O)Nc2ccccc2C(=O)c2ccc(C)c(C)c2)cc1`, the concentration for total growth inhibition (TGI) was over 100 µM.

`COc1c(Cl)c(=O)oc2ccc(Cl)cc12` yielded a TGI of over 100 µM.

`NS(=O)(=O)c1cc(Br)c(N=Nc2ccc(O)c3ncccc23)c(Br)c1`: the TGI was over 100 µM.

Consider `Cc1cc(I)cc(CN(C)CCCN2CCCCC2)c1O`, for which the GI50 is 16.7 µM and the TGI turned out to be 33.8 µM.

With `COc1cc(NCc2ccc3oc(=O)c(-c4ccccc4)nc3c2)cc(OC)c1OC`, the TGI is over 10 µM.

As for `Cc1ccccc1S(=O)(=O)OC1NS(=O)(=O)c2ccccc21` (centres undefined), the TGI was over 100 µM.

Regarding `CC(=O)[C@@]12O[C@@H]1CC1C3CCC4=CC(O)CCC4(C)C3CCC12C` (some centres undefined), the GI50 is 15 µM and the TGI amounted to 31.8 µM.

Compound `C=C(Br)C(C)(Br)CCC(Br)C(C)(C)Cl` (centres undefined) yielded a TGI of 43.1 µM.

As to `O=[N+]([O-])C(/C=C(\Cl)n1nnc2ccccc21)=C(/Cl)n1nnc2ccccc21`, the TGI is over 100 µM.

`O=C1c2cc3c(cc2-c2c1c1ccc(F)cc1c(=O)n2CCCNCCO)OCO3`: the GI50 was 0.0329 µM and the TGI stood at 1.09 µM.

Take `COc1ccc(-c2nnc(COc3ccc(NC(=O)Nc4cc(C(F)(F)F)cc(C(F)(F)F)c4)cc3F)o2)cc1`: the GI50 is 2.15 µM and the total growth inhibition concentration (TGI) came out at 4.84 µM.

`COc1ccc(/C=C(/C#N)n2nnc3cccc(F)c32)cc1`: the GI50 is 1.36 µM and the TGI is 4.67 µM.
